Biological target: T1, human 11β-HSD1 (Homo sapiens, UniProt P28845)
T1 construct: expressed in transfected cells; host or cells: CHO cells (microsomes)
Assay: Inhibition of microsomal preparation of 11β-HSD1 (SPA, Biological Test Example 1)
Type: biochemical
Details: for inhibition at 0.111 µM: 111 nM; for IC50: microsomes from CHO cells overexpressing human 11β-HSD1, read-out: IC50 Range; for inhibition at 0.1 µM: 100 nM
Experimental: The inhibition of microsomal preparation of 11β-HSD1 by compounds of the invention was measured essentially as previously described (K. Solly, S. S. Mundt, H. J. Zokian, G. J. Ding, A. Hermanowski-Vosatka, B. Strulovici, and W. Zheng, High-Throughput Screening of 11-Beta-Hydroxysteroid Dehydrogenase Type 1 in Scintillation Proximity Assay Format. Assay Drug Dev Technol 3 (2005) 377-384). All reactions were carried out at rt in 96 well clear flexible PET Microbeta plates (PerkinElmer). The assay begins by dispensing 49 μl of substrate solution (50 mM HEPES, pH 7.4, 100 mM KCl, 5 mM NaCl, 2 mM MgCl2, 2 mM NADPH and 160 nM [^3H]cortisone (1 Ci/mmol)) and mixing in 1 μL of the test compounds in DMSO previously diluted in half-log increments (8 points) starting at 0.1 mM. After a 10 minute pre-incubation, 50 μL of enzyme solution containing microsomes isolated from CHO cells overexpressing human 11β-HSD1 (10-20 μg/ml of total protein) was added, and the plates were incubated for 90 minutes at rt. The reaction was stopped by adding 50 μl of the SPA beads suspension containing 10 μM 18β-glycyrrhetinic acid, 5 mg/ml protein A coated YSi SPA beads (GE Healthcare) and 3.3 μg/ml of anti-cortisol antibody (East Coast Biologics) in Superblock buffer (Bio-Rad). The plates were shaken for 120 minutes at rt, and the SPA signal corresponding to [^3H]cortisol was measured on a Microbeta plate reader.

T1 sequence (P28845 whole entry): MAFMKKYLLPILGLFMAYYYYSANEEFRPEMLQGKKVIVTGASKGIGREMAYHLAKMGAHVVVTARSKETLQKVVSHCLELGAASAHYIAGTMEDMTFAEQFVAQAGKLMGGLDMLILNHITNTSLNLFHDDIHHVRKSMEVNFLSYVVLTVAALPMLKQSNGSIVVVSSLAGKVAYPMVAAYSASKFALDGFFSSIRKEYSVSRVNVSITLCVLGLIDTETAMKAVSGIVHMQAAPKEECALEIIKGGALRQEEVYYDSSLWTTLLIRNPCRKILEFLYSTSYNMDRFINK

SMILES	inhibition at 0.111 µM	IC50	inhibition at 0.1 µM
O=C1NC2(CCN(C(=O)Cc3ccccc3C(F)(F)F)CC2)c2c(Cl)cc(Cl)cc21 [EXAMPLE 50, 5,7-dichloro-1′-(2-(2-(trifluoromethyl)phenyl)acetyl)spiro[isoindoline-1,4′-piperidin]-3-one]	68.9%	100 to 1000 nM	
O=C(O)CC1CC2(CCN(C(=O)Cc3ccccc3C(F)(F)F)CC2)c2c(Cl)cccc21 (centres unmarked) [EXAMPLE 51, 2-(7-chloro-1′(2-(2-(trifluoromethyl)phenyl)acetyl)-2,3-dihydrospiro[indene-1,4′-piperidine]-3-yl)acetic acid]		< 100 nM	76.8%
O=C(O)CC1CC2(CCN(C(=O)Cc3ccccc3OC(F)(F)F)CC2)c2c(Cl)cccc21 (centres unmarked) [EXAMPLE 52, 2-(7-chloro-1′-(2-(2-(trifluoromethoxy)phenyl)acetyl)-2,3-dihydrospiro[indene-1,4′-piperidine]-3-yl)acetic acid]		< 100 nM	61.2%
O=C(O)CC1CC2(CCN(C(=O)Cc3ccc(F)cc3C(F)(F)F)CC2)c2c(Cl)cccc21 (centres unmarked) [EXAMPLE 53, 2-(7-chloro-1′(2-(4-fluoro-2-(trifluoromethyl)phenyl)acetyl)-2,3-dihydrospiro[indene-1,4′-piperidine]-3-yl)acetic acid]		< 100 nM	67.2%
O=C(O)CC1CC2(CCN(C(=O)Cc3ccc(Cl)cc3C(F)(F)F)CC2)c2c(Cl)cccc21 (centres unmarked) [EXAMPLE 54, 2-(7-chloro-1′(2-(4-chloro-2-(trifluoromethyl)phenyl)acetyl)-2,3-dihydrospiro[indene-1,4′-piperidine]-3-yl)acetic acid]		< 100 nM	71.7%
CN1C(=O)c2ccccc2C12CCN(C(=O)CCc1ccccc1C(F)(F)F)CC2 [EXAMPLE 55, 2-methyl-1′-(3-(2-(trifluoromethyl)phenyl)propanoyl)spiro[isoindoline-1,4′-piperidin]-3-one]	76.5%	< 100 nM	
CCOC(=O)CC1CC2(CCN(C(=O)CCc3ccccc3C(F)(F)F)CC2)c2c(Br)cccc21 (centres unmarked) [EXAMPLE 56, Ethyl 2-(7-bromo-1′-(3-(2-(trifluoromethyl)phenyl)propanoyl)-2,3-dihydrospiro[indene-1,4′-piperidine]-3-yl)acetate]	92.7%	< 100 nM	
CC(C)(C)OC(=O)N1Cc2ccccc2C2(CCN(C(=O)CCc3ccccc3C(F)(F)F)CC2)C1 [EXAMPLE 57, tert-butyl 1′-(3-(2-(trifluoromethyl)phenyl)propanoyl)-1H-spiro[isoquinoline-4,4′-piperidine]-2(3H)-carboxylate]	37.6%	100 to 1000 nM	
O=C(O)CC1CC2(CCN(C(=O)CCc3ccccc3C(F)(F)F)CC2)c2c(Br)cccc21 (centres unmarked) [EXAMPLE 58, 2-(7-bromo-1′-(3-(2-(trifluoromethyl)phenyl)propanoyl)-2,3-dihydrospiro[indene-1,4′-piperidine]-3-yl)acetic acid]	87.4%	< 100 nM	97.1%
O=C(CCc1ccccc1C(F)(F)F)N1CCC2(CC1)CNCc1ccccc12 [EXAMPLE 59, 1-(2,3-dihydro-1H-spiro[isoquinoline-4,4′-piperidine]-1′-yl)-3-(2-(trifluoromethyl)phenyl)propan-1-one]	66.6%	< 100 nM	
CS(=O)(=O)N1Cc2ccccc2C2(CCN(C(=O)CCc3ccccc3C(F)(F)F)CC2)C1 [EXAMPLE 60, 1-(2-(methylsulfonyl)-2,3-dihydro-1H-spiro[isoquinoline-4,4′-piperidine]-1′-yl)-3-(2-(trifluoromethyl)phenyl)propan-1-one]	92.6%	< 100 nM	
CN1C(=O)c2cccc(Cl)c2C12CCN(C(=O)CCc1ccccc1C(F)(F)F)CC2 [EXAMPLE 61, 7-chloro-2-methyl-1′-(3-(2-(trifluoromethyl)phenyl)propanoyl)spiro[isoindoline-1,4′-piperidin]-3-one]	96.7%	< 100 nM	93.3%

Source: patent publication US8383629B2, “Inhibitors of 11β-hydroxysteroid dehydrogenase type 1” (Vitae Pharmaceuticals, Inc., priority 2008, dated 2013)
